Source: US20230158064A1 (priority 2020, published 2023)

Assays:
[1] = tested on: cells infected with SARS-CoV; settings: cited from earlier work
[2] = tested on: COVID-19 (SARS-CoV-2); test: Example 2: INOpulse (pulsed iNO) expanded access series in hospitalized patients with hypoxemia due to COVID-19; assay type: in vivo; settings: for ratio of oxygen saturation to fraction of inspired oxygen (SpO2/FiO2), median: FiO2 estimated from oxygen flow
[3] = tested on: severe acute respiratory syndrome-related coronavirus (SARS-CoV); settings: cited from earlier work
[4] = tested on: COVID-19; test: Example 1: randomized open-label study of pulsed iNO versus standard of care in COVID-19, initial data; assay type: in vivo; settings: three COVID-19 patients that completed the regimen
Protocol: This example discloses a randomized, open-label study to assess the efficacy and safety of pulsed iNO compared to standard of care (SOC) in subjects with COVID-19 who are hospitalized and require supplemental oxygen without assisted ventilation. Up to 500 subjects are randomized to receive either (a) iNO 125 mcg/kg IBW/hr for at least 8 hours and up to 24 hours daily for 3 days to 14 days or until resolution or discharge at the discretion of the Investigator, or (b) standard of care. No placebo arm is used. Subjects are followed through Day 28 to assess their clinical status. The primary objective in this study is to verify the efficacy of iNO in subjects with COVID-19. The secondary objective in this study is to evaluate the safety of iNO in subjects with COVID-19.
Outcomes are assessed using an outcome scale assessed 14 days after randomization.
Prior to receiving treatment with iNO, subjects were screened to confirm eligibility. […] Subjects in the iNO group are treated by means of an INOpulse device using a readily available cannula on site.
At day 0 of the study, subjects testing positive for COVID-19 are evaluated for vital signs, blood chemistry, and a chest x-ray or CT scan, and an overall physical exam is performed. Daily vital signs, oxygen measurements (pulse oximetry), methemoglobin levels, and adverse events are assessed through the entire course of treatment. […]

[5] = tested on: SARS; settings: human, in vivo; cited from earlier work
[6] = one subject (CVD19-029), higher dose 250 mcg/kg IBW/hour (approximately 40 ppm)
[7] = patients that completed iNO treatment and were discharged

[N]=O [iNO, nitric oxide]
cellular survival of cells infected with SARS-CoV [1]: improves cellular survival | Oxygen Saturation (SpO2), Median ([2]; Discharge): 95% | Oxygen Therapy (L/min), Median ([2]; Discharge, n=20): 0.0 L/min | 8 Point Ordinal Scale, Median ([2]; Discharge, scale of Table A): 7 | Oxygen Saturation (SpO2), Median ([2]; Post-iNO): 95% | 8 Point Ordinal Scale, Median ([2]; Post-iNO (first day off iNO), scale of Table A): 4 | Oxygen Therapy (L/min), Median ([2]; Post-iNO, n=22): 2.0 L/min | ratio of oxygen saturation to fraction of inspired oxygen (SpO2/FiO2), median ([2]; baseline (start of iNO)): 229 | Oxygen Saturation (SpO2), Median ([2]; iNO-End): 95% | Oxygen Therapy (L/min), Median ([2]; iNO-End, n=22): 3.3 L/min | 8 Point Ordinal Scale, Median ([2]; iNO-End, scale of Table A): 4 | Oxygen Therapy (L/min), Median ([2]; iNO-Start (baseline), n=24, iNO 125 mcg/kg IBW/hour): 5.0 L/min | Oxygen Saturation (SpO2), Median ([2]; iNO-Start (baseline), pulse oximetry): 94% | 8 Point Ordinal Scale, Median ([2]; iNO-Start, scale of Table A (1 death to 8 not hospitalized, no limitations)): 4 | patients discharged from the hospital at the time of report ([2]; of 24 COVID-19 positive patients): 19 patients | deaths ([2]; of 24 patients, elderly person with severe comorbidities, iNO for less than 24 hours): one | ratio of oxygen saturation to fraction of inspired oxygen (SpO2/FiO2), median ([2]; on completion of iNO): 286 | clinical response [2, 6]: responded well and was discharged home without supplemental oxygen | tolerability [2, 6]: well tolerated | Time to Discharge from hospitalization (median, range) [2, 7]: 10 (6-23) Days | Time to Discharge from start of iNO (median, range) [2, 7]: 6 (3-14) Days | ratio of oxygen saturation to fraction of inspired oxygen (SpO2/FiO2), median ([2]; period after iNO): 346 | replication of SARS-CoV [3]: inhibits the replication | need for mechanical ventilation [4]: avoid the need for mechanical ventilation | oxygenation ([4]; iNO 125 mcg/kg IBW/hr): improved oxygenation | arterial oxygenation [5]: improvements in arterial oxygenation | chest radiography [5]: reduction in density of lung infiltrates | supplemental oxygen and need for ventilatory support [5]: reduction in supplemental oxygen and need for ventilatory support | time to hospital discharge [5]: shorter time to hospital discharge
